# Patent publication US6518317B1, “Antiviral agents” (priority 1997, dated 2003)
# System: Ad5 dlX [an adenovirus]
# Test: Amount of viral DNA in HeLa cells treated before infection with adenovirus
# Format: cell-based
# Conditions: 5 μM or more
# Procedure: (3) Viral DNA was extracted according to a method mentioned in “Protocols for Experiments of Virus” (pages 24-25; published by Medical View) from the HeLa cells which were treated with the cyclopentenone and infected by adenovirus followed by incubation by the same manner as in Example 2-(2).
# Thus, cells infected by virus were washed with a saline solution buffered by phosphoric acid, suspended in 1 ml of aqueous solution of 0.6% sodium laurylsulfate (SDS) and 10 mM EDTA and 3.0 ml of 5M aqueous solution of sodium chloride was added thereto. The mixture was allowed to stand at 0° C. for one hour and centrifuged and 3 ml of ethanol was added to the resulting supernatant liquid followed by mixing. The precipitate obtained by centrifugal separation was dissolved in 0.2 ml of TE buffer (10 mM Tris-HCl of pH 8.0 and 1 mM EDTA), then 2 μl of 10% SDS and 4 μl of 10 mg/ml proteinase K (manufactured by Takara Shuzo) were added thereto and the mixture was kept at 37° C. for one hours. This was extracted with a mixture of equal amounts of phenol and chloroform twice, 20 μl of 3M sodium acetate and 400 μl of ethanol were added to the aqueous layer, the mixture was centrifuged and the precipitate was dissolved in 50 μl of the TE buffer to give a DNA solution. […]
smiles,measurement,value
"O=C1C=CC(O)C1O (stereo not shown) [cyclopentenone, 4,5-dihydroxy-2-cyclopenten-1-one]",amount of viral DNA compared with the control,apparent decrease
